Assay results published in patent US12077503B2, “Substituted cyclic amides and their use as herbicides” (FMC CORPORATION, priority 2015, dated 2024).

Columns and labels:
Assay type in all cases: in vivo
[1] = system: ragweed (common ragweed, Ambrosia elatior); assay: Test A preemergence; details: Ambrosia artemisiifolia, pre-emergence, 240 h, Preemergence
How it was run: (§1)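 Each rating is a visual injury score from 0 to 100 given about 10 d after treatment, judged against untreated controls kept alongside in the greenhouse. In loam soil–sand blend, seeds got a preemergence directed soil spray, while postemergence plants were 2 to 10 cm tall at spraying.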

Kochia (Kochia scoparia) [2] = assay: Test A preemergence; details: Bassia scoparia, pre-emergence, 240 h, Preemergence
How it was run: as §1

[3] = system: giant foxtail (Setaria faberii); assay: Test A preemergence; details: Setaria faberi, pre-emergence, 240 h, Preemergence
How it was run: as §1

[4] = system: pigweed (Amaranthus retroflexus); assay: Test A preemergence; details: Amaranthus retroflexus, pre-emergence, 240 h, Preemergence
[5] = system: ryegrass, Italian (Italian ryegrass, Lolium multiflorum); assay: Test A preemergence; details: Lolium multiflorum, pre-emergence, 240 h, Preemergence
How it was run: as §1

[6] = system: barnyardgrass (Echinochloa crus-galli); assay: Test A preemergence; details: Echinochloa crus-galli, pre-emergence, 240 h, Preemergence
How it was run: as §1

[7] = system: Galium (catchweed bedstraw, Galium aparine); assay: Test A postemergence; details: Galium, post-emergence, 240 h, Postemergence
How it was run: as §1

[8] = system: ragweed (common ragweed, Ambrosia elatior); assay: Test A postemergence; details: Ambrosia artemisiifolia, post-emergence, 240 h, Postemergence
How it was run: as §1

Kochia (Kochia scoparia) [9] = assay: Test A postemergence; details: Bassia scoparia, post-emergence, 240 h, Postemergence
How it was run: as §1

[10] = system: wheat (Triticum aestivum); assay: Test A postemergence; details: Triticum aestivum, post-emergence, 240 h, Postemergence
How it was run: as §1

[11] = system: giant foxtail (Setaria faberii); assay: Test A postemergence; details: Setaria faberi, post-emergence, 240 h, Postemergence
How it was run: as §1

[12] = system: pigweed (Amaranthus retroflexus); assay: Test A postemergence; details: Amaranthus retroflexus, post-emergence, 240 h, Postemergence
How it was run: as §1

corn (Zea mays) = assay: Test A postemergence; details: Zea mays, post-emergence, 240 h, Postemergence
How it was run: as §1

[13] = system: blackgrass (Alopecurus myosuroides); assay: Test A postemergence; details: Alopecurus myosuroides, post-emergence, 240 h, Postemergence
How it was run: as §1

[14] = system: ryegrass, Italian (Italian ryegrass, Lolium multiflorum); assay: Test A postemergence; details: Lolium multiflorum, post-emergence, 240 h, Postemergence
How it was run: as §1

[15] = system: barnyardgrass (Echinochloa crus-galli); assay: Test A postemergence; details: Echinochloa crus-galli, post-emergence, 240 h, Postemergence
How it was run: as §1

rice (Oryra sativa) = assay: Test B flooded paddy test; details: Oryza sativa, 360 h, Flood, 250 g ai/ha; visually evaluated after 13 to 15 d; read-out: Plant response rating, Rice (0 to 100 scale where 0 is no effect and 100 is complete control)
How it was run: (§2)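 Percent control, visually estimated after 13–15 d in the greenhouse on a 0–100 basis, compares treated pots with untreated ones; compound was put into paddy water 3 cm above the soil when plants had two leaves.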

[16] = system: sedge, umbrella (small-flower umbrella sedge, Cyperus difformis); assay: Test B flooded paddy test; details: Cyperus difformis, 360 h, Flood, 250 g ai/ha; visually evaluated after 13 to 15 d; read-out: Plant response rating, Sedge, Umbrella (0 to 100 scale where 0 is no effect and 100 is complete control)
How it was run: as §2

[17] = system: ducksalad (Heteranthera limosa); assay: Test B flooded paddy test; details: Heteranthera limosa, 360 h, Flood, 250 g ai/ha; visually evaluated after 13 to 15 d; read-out: Plant response rating, Ducksalad (0 to 100 scale where 0 is no effect and 100 is complete control)
How it was run: as §2

[18] = system: barnyardgrass (Echinochloa crus-galli); assay: Test B flooded paddy test; details: Echinochloa crus-galli, 360 h, Flood, 250 g ai/ha; visually evaluated after 13 to 15 d; read-out: Plant response rating, Barnyardgrass (0 to 100 scale where 0 is no effect and 100 is complete control)
How it was run: as §2

Cc1ccc([C@H]2CN(C)C(=O)[C@@H]2C(=O)Nc2ccc(F)nc2F)cc1 [Compound 1402]
90%: pest or weed control at 125 g/ha ([4]; 125 g ai/ha, 0 to 100 scale (0 no effect, 100 complete control), read-out: Plant response rating, Pigweed) | pest or weed control at 125 g/ha ([6]; 125 g ai/ha, 0 to 100 scale (0 no effect, 100 complete control), read-out: Plant response rating, Barnyardgrass) | pest or weed control at 125 g/ha ([11]; 125 g ai/ha, visual injury after approx. 10 d, 0 to 100 scale, 0 no effect, 100 complete control, read-out: Plant response rating, Foxtail, Giant) | pest or weed control at 125 g/ha ([15]; 125 g ai/ha, visual injury after approx. 10 d, 0 to 100 scale, 0 no effect, 100 complete control, read-out: Plant response rating, Barnyardgrass) | pest or weed control at 250 g/ha [18]
95%: pest or weed control at 250 g/ha [17]
0%: pest or weed control at 125 g/ha ([1]; 125 g ai/ha, 0 to 100 scale (0 no effect, 100 complete control), read-out: Plant response rating, Ragweed) | pest or weed control at 31 g/ha ([5]; 31 g ai/ha, 0 to 100 scale where 0 is no effect and 100 is complete control, read-out: Ryegrass, Italian plant response rating) | pest or weed control at 125 g/ha ([5]; 125 g ai/ha, 0 to 100 scale (0 no effect, 100 complete control), read-out: Plant response rating, Ryegrass, Italian) | pest or weed control at 31 g/ha ([8]; 31 g ai/ha, 0 is no effect, 100 is complete control, read-out: Ragweed plant response rating (0 to 100 scale)) | pest or weed control at 31 g/ha ([12]; 31 g ai/ha, 0 is no effect, 100 is complete control, read-out: Pigweed plant response rating (0 to 100 scale)) | pest or weed control at 125 g/ha ([12]; 125 g ai/ha, visual injury after approx. 10 d, 0 to 100 scale, 0 no effect, 100 complete control, read-out: Plant response rating, Pigweed) | plant injury at 31 g/ha (corn (Zea mays); 31 g ai/ha, 0 is no effect, 100 is complete control, read-out: Corn plant response rating (0 to 100 scale)) | Corn plant response rating (crop injury, 0 = no effect, 100 = complete kill) at 125 g/ha (corn (Zea mays); 125 g ai/ha, visual injury after approx. 10 d, 0 to 100 scale, 0 no effect, 100 complete control) | pest or weed control at 31 g/ha ([13]; 31 g ai/ha, 0 is no effect, 100 is complete control, read-out: Blackgrass plant response rating (0 to 100 scale)) | pest or weed control at 31 g/ha ([14]; 31 g ai/ha, 0 is no effect, 100 is complete control, read-out: Ryegrass, Italian plant response rating (0 to 100 scale)) | pest or weed control at 125 g/ha ([14]; 125 g ai/ha, visual injury after approx. 10 d, 0 to 100 scale, 0 no effect, 100 complete control, read-out: Plant response rating, Ryegrass, Italian) | pest or weed control at 250 g/ha (rice (Oryra sativa)) | pest or weed control at 250 g/ha [16]
40%: plant injury at 125 g/ha ([10]; 125 g ai/ha, visual injury after approx. 10 d, 0 to 100 scale, 0 no effect, 100 complete control, read-out: Plant response rating, Wheat)
30%: pest or weed control at 31 g/ha ([1]; 31 g ai/ha, 0 to 100 scale where 0 is no effect and 100 is complete control, read-out: Ragweed plant response rating) | pest or weed control at 31 g/ha (Kochia (Kochia scoparia) [9]; 31 g ai/ha, 0 is no effect, 100 is complete control, read-out: Kochia plant response rating (0 to 100 scale))
100%: pest or weed control at 31 g/ha ([3]; 31 g ai/ha, 0 to 100 scale where 0 is no effect and 100 is complete control, read-out: Foxtail, Giant plant response rating) | pest or weed control at 125 g/ha ([3]; 125 g ai/ha, 0 to 100 scale (0 no effect, 100 complete control), read-out: Plant response rating, Foxtail, Giant) | pest or weed control at 31 g/ha ([6]; 31 g ai/ha, 0 to 100 scale where 0 is no effect and 100 is complete control, read-out: Barnyardgrass plant response rating)
80%: pest or weed control at 125 g/ha (Kochia (Kochia scoparia) [2]; 125 g ai/ha, 0 to 100 scale (0 no effect, 100 complete control), read-out: Plant response rating, Kochia) | pest or weed control at 31 g/ha ([15]; 31 g ai/ha, 0 is no effect, 100 is complete control, read-out: Barnyardgrass plant response rating (0 to 100 scale))
50%: pest or weed control at 31 g/ha ([11]; 31 g ai/ha, 0 is no effect, 100 is complete control, read-out: Foxtail, Giant plant response rating (0 to 100 scale)) | pest or weed control at 125 g/ha ([13]; 125 g ai/ha, visual injury after approx. 10 d, 0 to 100 scale, 0 no effect, 100 complete control, read-out: Plant response rating, Blackgrass)
60%: pest or weed control at 31 g/ha ([7]; 31 g ai/ha, 0 is no effect, 100 is complete control, read-out: Galium plant response rating (0 to 100 scale))
70%: pest or weed control at 125 g/ha ([7]; 125 g ai/ha, visual injury after approx. 10 d, 0 to 100 scale, 0 no effect, 100 complete control, read-out: Plant response rating, Galium) | pest or weed control at 125 g/ha (Kochia (Kochia scoparia) [9]; 125 g ai/ha, visual injury after approx. 10 d, 0 to 100 scale, 0 no effect, 100 complete control, read-out: Plant response rating, Kochia)
20%: pest or weed control at 31 g/ha (Kochia (Kochia scoparia) [2]; 31 g ai/ha, 0 to 100 scale where 0 is no effect and 100 is complete control, read-out: Kochia plant response rating) | pest or weed control at 31 g/ha ([4]; 31 g ai/ha, 0 to 100 scale where 0 is no effect and 100 is complete control, read-out: Pigweed plant response rating) | pest or weed control at 125 g/ha ([8]; 125 g ai/ha, visual injury after approx. 10 d, 0 to 100 scale, 0 no effect, 100 complete control, read-out: Plant response rating, Ragweed) | plant injury at 31 g/ha ([10]; 31 g ai/ha, 0 is no effect, 100 is complete control, read-out: Wheat plant response rating (0 to 100 scale))
